For one data set, the system named is CD4+ve Th. The data set can be described thus: Immunosuppressive activity in C57BL/6 mouse SMNCs-derived CD4+ T cells assessed as inhibition of concanavalinA-stimulated cell proliferation at 1 uM measured after 5 to 7 days by CFSE staining based FACScan flowcytometry. The format is functional. Particulars: time 5-7 day.
A short description of data set [1]: Cytotoxicity against C57BL/6 mouse spleen mononuclear cells assessed as cell viability at 0.5 to 1 uM measured after 48 hrs by CCK-8 assay. Particulars: mononuclear cell line, dose 0.5-1 µM. The format is cell-based.

Molecules are shown by their SMILES. Calls of active or inactive are those of the source. No cut-off for these calls is given here.

On to `Cc1ccc(O)cc1CC[C@@H]1[C@H](O)CC[C@]2(C)[C@@H]([C@H](C)CCCC(C)C)CC[C@@H]12` [ASTROGORGIADIOL], for which the result in the data set with CD4+ve Th was Active. The Activity entry in data set [1] is recorded as “Non-Toxic”.

With `Cc1ccc(O)cc1CC[C@]1(O)C(=O)CC[C@]2(C)[C@@H]([C@H](C)/C=C/[C@@H](C)C(C)C)C[C@@H](O)[C@H]21`, the result in the data set with CD4+ve Th was inactive. Moreover, the Activity result in data set [1] was “Non-Toxic”.

On to `Cc1ccc(O)cc1CC[C@@H]1[C@H](O)CC[C@]2(C)[C@@H]([C@H](C)/C=C/[C@@H](C)C(C)C)CC[C@@H]12`, for which the result in the data set with CD4+ve Th was Active. Besides, the Activity result in data set [1] was “Non-Toxic”.

Turning to `Cc1ccc(O)cc1CC[C@]1(O)C(=O)CC[C@]2(C)[C@@H]([C@H](C)/C=C/CC(C)C)CC[C@H]21`, the result in the data set on CD4+ve Th was Active. For the same compound, the Activity result in data set [1] is “Non-Toxic”.

Consider `C=C(CC[C@@H](C)[C@H]1CC[C@@H]2[C@]1(C)CC[C@@H](O)[C@@]2(O)CCc1cc(O)ccc1C)C(C)C`, for which the outcome with CD4+ve Th was Active. In data set [1], the Activity entry is reported as “Non-Toxic”.

For `Cc1ccc(O)cc1CC[C@]1(O)[C@H](O)CC[C@]2(C)[C@@H]([C@H](C)CC[C@H](C)C(C)C)CC[C@H]21`, the outcome in the data set on CD4+ve Th was Active. The Activity entry in data set [1] was “Non-Toxic”.

Take `Cc1ccc(O)cc1CC[C@]1(O)[C@H](O)CC[C@]2(C)[C@@H]([C@H](C)/C=C/CC(C)C)CC[C@H]21`: the outcome with CD4+ve Th was Active. For the same compound, the Activity result in data set [1] is “Non-Toxic”.

Take `C=C(CC[C@@H](C)[C@H]1CC[C@H]2[C@H](CCc3cc(O)ccc3C)[C@H](O)CC[C@]12C)C(C)C` [CALICOFEROL C]: in the data set on CD4+ve Th, the result was Active. The Activity entry in data set [1] is “Non-Toxic”.

As to `Cc1ccc(O)cc1CC[C@@H]1[C@H](O)CC[C@]2(C)[C@@H]([C@H](C)CCCC(C)C)[C@@H](O)C[C@@H]12` [CALICOFEROL B], the outcome in the data set with CD4+ve Th was Active. For the same compound, the Activity entry in data set [1] is listed as “Non-Toxic”.

Regarding `Cc1ccc(O)cc1CC[C@]1(O)[C@H](O)CC[C@]2(C)[C@@H]([C@H](C)CC[C@@H](C)C(C)C)CC[C@H]21`, the result in the data set with CD4+ve Th was Active. Further, the Activity entry in data set [1] is given as “Non-Toxic”.

Take `Cc1ccc(O)cc1CC[C@]1(O)C(=O)CC[C@]2(C)[C@@H]([C@H](C)/C=C/[C@@H](C)C(C)C)CC[C@H]21`: the result in the data set on CD4+ve Th was Active. The Activity entry in data set [1] is listed as “Non-Toxic”.

Take `CC(C)=CCC[C@@H](C)[C@H]1CC[C@H]2[C@H](CCc3cc(O)ccc3C)[C@H](O)CC[C@]12C` [CALICOFEROL G]: the result with CD4+ve Th was Active. Moreover, the Activity result in data set [1] is reported as “Non-Toxic”.

As to `C/C=C(/CC[C@@H](C)[C@H]1CC[C@@H]2[C@]1(C)CC[C@@H](O)[C@@]2(O)CCc1cc(O)ccc1C)C(C)C`, the result with CD4+ve Th was inactive. Also, the Activity result in data set [1] is “Non-Toxic”.

Turning to `Cc1ccc(O)cc1CC[C@]1(O)[C@H](O)CC[C@]2(C)[C@@H]([C@H](C)CCCC(C)C)CC[C@H]21`, the result in the data set with CD4+ve Th was Active. In addition, in data set [1], the Activity entry is listed as “Non-Toxic”.

With `Cc1ccc(O)cc1CC[C@]1(O)[C@H](O)CC[C@]2(C)[C@@H]([C@H](C)/C=C/[C@@H](C)C(C)C)CC[C@H]21`, the result in the data set on CD4+ve Th was Active. Further, the Activity result in data set [1] is given as “Non-Toxic”.

With `Cc1ccc(O)cc1CC[C@@H]1[C@H](O)CC[C@]2(C)[C@@H]([C@H](C)/C=C/CC(C)C)CC[C@@H]12`, the outcome with CD4+ve Th was Active. Besides, the Activity result in data set [1] was “Non-Toxic”.
